Reference: paper PMC5736175, “Nicotinic alpha 7 receptor agonists EVP-6124 and BMS-933043, attenuate scopolamine-induced deficits in visuo-spatial paired associates learning” (PLoS ONE, 2017)
Several values for one entry are separate records, joined by “and”; a condition that tells them apart may be missing. Identical values can stand only once.

Key:
[1] = test system: 5-HT3 receptor; details: cited from earlier work
[2] = Plasma pharmacokinetics in satellite animals (LC-MS/MS), 60 min after i.m. dose; details: for concentration at 60 min: cynomolgus monkey, in vivo, nM total compound in plasma from satellite animals
Description: For all compounds, plasma pharmacokinetic studies were conducted in a separate cohort of cynomolgus monkeys (N = 2–3 subjects per dose) before beginning vsPAL testing to help guide dose selection. Blood samples were obtained with the animals awake and sitting in a primate chair.
Plasma concentrations of test compounds were determined using LC-MS/MS assays. In brief, 50 μL plasma and sample containing compounds was extracted by protein precipitation method with 150 μL acetonitrile containing an internal standard. A 5 μL sample of supernatant was injected into the LC-MS/MS system. Analytes were separated by reversed phase chromatography and detection of each analyte was achieved through selected reaction monitoring mode of mass spectrometry. Samples were quantified by calculated peak area ratio of analyte and internal standard against a calibration curve.

For `c1cn(-c2cc(NC3=NC[C@@]4(CN5CCC4CC5)O3)ncn2)cn1` [BMS-933043, (2R)-N-(6-(1H-imidazol-1-yl)-4-pyrimidinyl)-4'H-spiro[4-azabicyclo[2.2.2]octane-2,5'-[1, 3]oxazol]-2'-amine], the “selectivity for nAChR α7 versus the 5-HT3 receptor” value [1] is given as “highly selective”, the “nM total compound in plasma from satellite animals, 60 min” value (“nM total compound in plasma” below) ([2]; 0.03 mg/kg i.m., individual subjects) is given as 16.6 nM and 18.4 nM and the “nM total compound in plasma” value ([2]; 0.10 mg/kg i.m., individual subjects) is given as 60.9 nM and 70.1 nM. The “nM total compound in plasma” value ([2]; 0.30 mg/kg i.m., individual subjects) was 145.0 nM and 280.0 nM and 133.0 nM, the “nM total compound in plasma” value ([2]; 1.00 mg/kg i.m., individual subjects) was 1100.0 nM and the concentration at 60 min ([2]; 0.03 mg/kg, 0.03 mg/kg i.m., individual subjects) was 20.1 nM. The concentration at 60 min ([2]; 0.03 mg/kg, 0.03 mg/kg i.m., mean) was 18.4 nM, the concentration at 60 min ([2]; 0.1 mg/kg, 0.10 mg/kg i.m., individual subjects) was 66.6 nM and the concentration at 60 min ([2]; 0.1 mg/kg, 0.10 mg/kg i.m., mean) was 65.9 nM. It also gave a concentration at 60 min ([2]; 0.3 mg/kg, 0.30 mg/kg i.m., mean) of 186 nM, a concentration at 60 min ([2]; 1 mg/kg, 1.00 mg/kg i.m., individual subjects) of 739 nM and a concentration at 60 min ([2]; 1 mg/kg, 1.00 mg/kg i.m., mean) of 920 nM.
